Results: ChEMBL document CHEMBL1127582, “Novel 3 alpha-(diphenylmethoxy)tropane analogs: potent dopamine uptake inhibitors without cocaine-like behavioral profiles” (J Med Chem, 1994)
pIC50, pKi: −log10 of the molar value.

Columns and labels:
Rattus norvegicus = species on record: Rattus norvegicus; experiment: Compound was evaluated for its ability to block the [3H]-Dopamine uptake in rat caudate-putamen; format: functional, organism-based
[1] = biological target: Sodium-dependent dopamine transporter (Rattus norvegicus, UniProt P23977); experiment: Compound was evaluated for its ability to displace [3H]WIN-35428 binding in rat caudate-putamen; format: tissue-based
Sodium-dependent dopamine transporter, sequence (P23977 whole entry): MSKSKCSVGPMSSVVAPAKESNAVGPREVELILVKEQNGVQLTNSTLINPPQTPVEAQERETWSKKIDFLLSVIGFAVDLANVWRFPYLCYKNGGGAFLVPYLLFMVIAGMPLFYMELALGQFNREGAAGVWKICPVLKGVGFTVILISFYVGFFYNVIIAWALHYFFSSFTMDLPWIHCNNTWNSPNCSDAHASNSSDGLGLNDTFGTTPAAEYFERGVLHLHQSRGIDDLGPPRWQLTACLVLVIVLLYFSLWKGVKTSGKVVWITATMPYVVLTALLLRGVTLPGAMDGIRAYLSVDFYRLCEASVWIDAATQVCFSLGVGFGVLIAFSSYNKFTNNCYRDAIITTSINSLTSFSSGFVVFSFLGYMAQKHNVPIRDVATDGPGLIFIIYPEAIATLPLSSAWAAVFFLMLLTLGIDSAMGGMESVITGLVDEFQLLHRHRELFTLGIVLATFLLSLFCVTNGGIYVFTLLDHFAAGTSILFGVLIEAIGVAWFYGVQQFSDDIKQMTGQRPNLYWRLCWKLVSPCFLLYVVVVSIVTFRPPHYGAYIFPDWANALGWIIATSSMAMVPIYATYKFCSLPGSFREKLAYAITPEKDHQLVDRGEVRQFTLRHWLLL

**Q.** How did the pIC50 (Rattus norvegicus) turn out when `CN1[C@@H]2CC[C@H]1C[C@@H](OC(c1ccccc1)c1ccc(Cl)cc1)C2` (some centres undefined) was run?
**A.** The pIC50 was 6.94.

**Q.** And the pKi [1]?
**A.** Its pKi is 7.52.

**Q.** With `CN1C2CCC1CC(OC(c1ccccc1)c1ccc(Cl)cc1)C2` (centres undefined) as the compound, how does the pIC50 (Rattus norvegicus) read?
**A.** Its pIC50 is 5.45.

**Q.** And the pKi [1]?
**A.** The pKi was 6.07.

**Q.** What does the source list for `COc1ccc(C(OC2CC3CCC(C2)N3C)c2ccc(OC)cc2)cc1` (centres undefined)?
**A.** pIC50 (Rattus norvegicus): 5.54; pKi [1]: 5.70

**Q.** With `COc1ccc(C(OC2CC3CCC(C2)N3C)c2ccccc2)cc1` (centres undefined) as the compound, how does the pIC50 (Rattus norvegicus) read?
**A.** The pIC50 was 6.33.

**Q.** What about the pKi [1] of the same compound?
**A.** Its pKi is 7.11.

**Q.** With `Fc1ccc(C(OCCN2CCN(CCCc3ccccc3)CC2)c2ccc(F)cc2)cc1` [VANOXERINE] as the compound, how does the pIC50 (Rattus norvegicus) read?
**A.** Its pIC50 is 8.30.
